Measured values published in PMC12125102, “The “specific” P-glycoprotein inhibitor zosuquidar (LY335979) also weakly inhibits human organic cation transporters” (Naunyn-Schmiedeberg's Archives of Pharmacology, 2024).

Molecular target: T1, OCT1 (organic cation transporter 1) (Homo sapiens, UniProt O15245)
T1 construct: gene SLC22A1
T1 sequence (O15245 1-554): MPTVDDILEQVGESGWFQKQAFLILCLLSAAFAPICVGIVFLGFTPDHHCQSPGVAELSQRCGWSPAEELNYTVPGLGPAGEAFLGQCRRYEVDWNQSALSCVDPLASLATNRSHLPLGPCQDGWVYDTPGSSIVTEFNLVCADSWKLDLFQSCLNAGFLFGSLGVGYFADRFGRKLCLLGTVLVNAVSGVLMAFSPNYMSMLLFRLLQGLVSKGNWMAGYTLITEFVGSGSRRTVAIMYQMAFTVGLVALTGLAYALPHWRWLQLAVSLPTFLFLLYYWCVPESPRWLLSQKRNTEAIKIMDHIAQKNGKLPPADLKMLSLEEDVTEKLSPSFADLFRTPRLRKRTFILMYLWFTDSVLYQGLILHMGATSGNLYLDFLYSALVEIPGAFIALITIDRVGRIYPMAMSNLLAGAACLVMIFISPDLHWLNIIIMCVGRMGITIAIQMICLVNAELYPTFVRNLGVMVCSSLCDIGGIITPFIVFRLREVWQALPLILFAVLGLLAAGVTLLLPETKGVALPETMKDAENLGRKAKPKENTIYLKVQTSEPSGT
Experiment: inhibition of metformin uptake in HEK293-Flp-In-OCT1 cells, […] min pre-incubation, UPLC-MS/MS
Type: cell-based

Structure (SMILES): O[C@@H](COc1cccc2ncccc12)CN1CCN([C@@H]2c3ccccc3[C@@H]3[C@H](c4ccccc42)C3(F)F)CC1 [zosuquidar]
- IC50: 7.5 ± 3.7 µM
